Results as given in patent publication US20200085895A1, “PUNICALAGIN COMPOSITIONS AND METHODS FOR THE TREATMENT OF DISORDERS ARISING FROM METHYLGLYOXAL-INDUCED DNA DAMAGE” (Verdure Sciences, priority 2018, published 2020).
Entries after “also recorded” stand apart in the source; their conditions may differ.

Legend:
HaCaT cells [1] = experiment: Wound healing model (in vitro scratch healing assay); assay type: cell-based, human; conditions: 50 μM pre-treatment 2 hours, 400 μM MGO 48 h; FIG. 9D, 9E
Method: (§1) HaCaT cells which were derived from human adult keratinocytes were bought from American Type Culture Collection (Manassas, Va., USA). The cells were maintained in DMEM supplemented with 5% FBS at 37° C. under an atmosphere of 5% CO2 and 95% air. The culture medium was replaced every other day.
Wound healing model was constructed with an in vitro scratch healing assay performed as described previously with certain modifications.^4 HaCaT cells in 6-well plates were cultured up to about 80-90% confluence. Then cells were pretreated with PE 50 μg/mL, PA 50 μM, EA 50 μM, and UA 50 μM, respectively for 2 hours. After the treatments, a narrow wound-like gap in the cell monolayer was created with a […] pipette tip in each well. The shedding cells were washed off with PBS and then the images were captured with EVOS Cell Imaging System (Invitrogen, Waltham, Mass., USA). The cells were further exposed to 400 μM MGO for 48 h and the cell images were captured with EVOS Cell Imaging System (Invitrogen, Waltham, Mass., USA). Gap area was analyzed in image J, a software quantifying visualization image data, and the wound healing rate was calculated as follows=[…]/Gap Area(0 h)×100%.

HaCaT cells [2] = experiment: Reactive oxygen species (ROS) assay, DCFDA; assay type: cell-based, human; conditions: MGO 400 μM 24 h, FIG. 6
Method: HaCaT cells were seeded at about 50 000 cells/ml to yield 50-60% confluence in standard white-walled clear bottom 96-well plates and 6-well plates in DMEM. After 12 h incubation cells were pre-treated with concentrations of PE (0, 6.25, 12.5, 25, 50, 100, 200 μg/mL), PA (0, 3.13, 6.25, 12.5, 25, 50, 100, 200 μM), EA (0, 3.13, 6.25, 12.5, 25, 50, 100, 200 μM), and UA (0, 3.13, 6.25, 12.5, 25, 50, 100, 200 μM) for 2 hours. Then, the medium was replaced with DMEM containing 20 μM DCFDA and MGO (400 μM) for 24 h. After incubation, all the wells were washed with PBS twice. Subsequently, the fluorescence signals from 96-well plates were read at excitation and emission wavelengths of 485 and 525 nm, respectively, using a Spectra Max M2 spectrometer (Molecular Devices, Sunnyvale, Calif., USA). Cells images were taken with EVOS Cell Imaging System (Invitrogen, Waltham, Mass., USA) using 6-well plates cells.

HaCaT cells [3] = experiment: Transwell assay (cell migration ability); assay type: cell-based, human; conditions: 50 μM pre-treatment 2 hours, 400 μM MGO 24 h; FIG. 9B
Method: Cell migration ability was measured by transwell assay. HaCaT cells in 6-well plates were cultured up to about 80-90% confluence. Then cells were pretreated with PE 50 μg/mL, PA 50 μM, EA 50 μM, and UA 50 μM, respectively for 2 hours, then washed with PBS twice. After that, cells were exposed to 400 μM of MGO for 24 h. Then, cells were digested with trypsin and centrifuged at 300 g for 5 min. Then, 2.5×10^5 cell were suspended in 1 ml serum free DMED. 100 μl of serum free DMEM were added into the upper chamber and incubated for 5 minutes, then 600 μl DMEM containing 5% FBS were added to the 24 well plate (lower chamber). After that 300 μl of cell suspension were added into the upper chamber. After 12 h incubation, cells in upper chamber were washed with PBS and fixed with 75% ethanol for 15 minutes. Then cells in upper chamber were stained with Crystal violet for 10 minutes and washed for 5 times. Cells inside the upper chamber were removed by swab. Then, pictures were taken with EVOS Cell Imaging System (Invitrogen, Waltham, Mass., USA). After that stained cells were incubated in 75% ethanol for 15 minutes for decoloration. Then, optical density of the decoloration solution in 570 nm was calculated via Spectra Max M2 spectrometer (Molecular Devices, Sunnyvale, Calif., USA).

HaCaT cells [4] = experiment: Protective effect on MGO induced cell damage model (CTG 2.0); assay type: cell-based, human; conditions: 12.5, 25, and 50 μM pre-treatment 2 hours, then 400 μM MGO 24 hours; FIG. 5
Method: as §1
Briefly, HaCaT cells were seeded at about 50000 cells/ml to yield 50-60% confluence in standard white-walled clear bottom 96-well plates and 6-well plates. After 12 h incubation cells were pre-treated with different concentrations of PE (0, 6.25, 12.5, 25, 50, 100, 200 μg/mL), PA (0, 3.13, 6.25, 12.5, 25, 50, 100, 200 μM), EA (0, 3.13, 6.25, 12.5, 25, 50, 100, 200 μM), and UA (0, 3.13, 6.25, 12.5, 25, 50, 100, 200 μM) for 2 hours. Then cells were washed with PBS twice and treated with 400 μM MGO for 24 hours. Cellular viability was detected using cells in 96-well plate via CTG 2.0, and cell images were taken with EVOS Cell Imaging System (Invitrogen, Waltham, Mass., USA) using cells in 6-well plates after crystal violet stain.

HaCaT cells [5] = experiment: Hoechst 33342 staining, MGO-induced DNA damage; assay type: cell-based, human; conditions: 50 μM pre-treatment 2 hours, 400 μM MGO 24 hours; FIG. 7
Method: HaCaT cells were seeded at about 50,000 cells/ml to yield 50-60% confluency in a standard 6-well plate. Cells were pre-treated with PE 50 μg/mL, PA 50 μM, EA 50 μM, and UA 50 μM, respectively for 2 hours. Then cells were washed with PBS once and treated with 400 μM of MGO for 24 hours. After that cells were washed with PBS twice and then incubated with 250 μl Hoechst 33342 (1:300 dilute with PBS) at room temperature for 15 minutes. Then cells were fixed with 75% ethanol for 15 minutes, followed by imaging with EVOS Cell Imaging System (Invitrogen, Waltham, Mass., USA).

9mer ss-DNA = experiment: Glycation assay and LC-MS analysis of MGO-induced DNA damage; assay type: biochemical; conditions: FIG. 1
Excerpt: DNA Oligonucleotide Synthesis. Nine-mer single stranded DNA oligonucleotide (9mer ss-DNA) with the sequence 5′-TTTTGTTTT-3′ containing a single guanine base was synthesized by using solid-phase phosphoramidite chemistry as previously described^2 on MerMade-4 DNA synthesizer. The oligonucleotide was purified by using Thermo Scientific DNAPac PA100 Oligonucleotide anion-exchange column (4×250 mm, 13 μm) with two mobile phases. Solvent A was water, and solvent B was 1.5M ammonium acetate in water. The oligonucleotide was characterized by HPLC electrospray ionization (ESI) triple quadrupole-TOF mass spectrometry (MS). The concentration of oligonucleotide was determined by measuring UV absorbance at 260 nm on a NanoDrop spectrophotometer.
Glycation Assay and LC-MS Analysis. […] LC-MS analysis was carried out on AB Sciex triple quadrupole-TOF 4600 mass spectrometer. […]
Statistical Analysis. […] The data between two groups was assessed under the two-tailed Student's t test. p-value<0.05 was considered as statistically significant. […]

HaCaT cells [6] = experiment: Alkaline comet assay, MGO-induced DNA damage; assay type: cell-based, human; conditions: for protective effect on MGO induced DNA damage (comet assay, tail DNA): 50 μM pre-treatment 2 hours, MGO 400 μM 24 h, FIG. 8
Method: HaCaT cells were seeded at about 100 000 cells/ml to yield 80-90% confluence in standard 6-well plates. […] After incubation, the cells were washed with PBS twice and then treated with MGO (400 μM) for 24 h. After that, comet assay was performed as per the protocol provided by [sequence] (4250-050-K). Briefly, cells were collected and combined with molten LMAgarose at a ratio of 1:10, pipetted onto Comet slides, incubate in Lysis Solution at 4° C. overnight, immerse slides in Alkaline Unwinding Solution for 20 minutes, apply electrophoresis in Alkaline Electrophoresis Solution at 21 volts for 30 minutes, fixed in 75% ethanol for 15 minutes, dry in 37° C. for 15 minutes and then stain in diluted SYBR GOLD, images were taken with EVOS Cell Imaging System (Invitrogen, Waltham, Mass., USA) and analyzed via CASP.

HaCaT cells [7] = experiment: Cell viability of HaCaT cells exposed to test substances (CTG 2.0); assay type: cell-based, human; conditions: 0-200 μM, 24 hours, FIG. 3
Method: as §1
Cellular viability was assessed using the Cell Titer Glo2.0 (CTG 2.0) one-step assay. Briefly, HaCaT cells were seeded at about 50 000 cells/ml to yield 50-60% confluence in a standard white-walled clear bottom 96-well plate. HaCaT cells were exposed to different concentration of PE (0, 6.25, 12.5, 25, 50, 100, 200 μg/mL), PA (0, 3.13, 6.25, 12.5, 25, 50, 100, 200 μM), EA (0, 3.13, 6.25, 12.5, 25, 50, 100, 200 μM), and UA (0, 3.13, 6.25, 12.5, 25, 50, 100, 200 μM) for 24 hours. Following the pre-determined incubation period of 24 hours, CTG 2.0 was added in a 1:1 ratio with existing media and mixed for 5 minutes on an orbital shaker prior to luminescence measurement (Spectramax M2, Molecular Devices, Sunnyvale, Calif., USA).

HaCaT cells [8] = experiment: MGO induced cell damage model (CTG 2.0, crystal violet staining); assay type: cell-based, human; conditions: 24 hours
Method: as §1
Briefly, HaCaT cells were seeded at about 50000 cells/ml to yield 50-60% confluence in standard white-walled clear bottom 96-well plates and 6-well plates. After 12 h incubation cells were treated with different concentrations of MGO ([…], 200 μM, 300 μM, 400 μM, 500 μM and 600 μM) for 24 hours respectively and use non-treated group as control. Cellular viability was detected using cells in 96-well plates via CTG 2.0. […] At higher concentrations than 400 μM the damaged caused by MGO to the cells was extreme. Morphological analysis was conducted to evaluate cell damage with crystal violet staining method in 6-well plates as per the below mentioned procedure.
Briefly crystal violet staining were carried with protocol provided by sigma. The staining solution was prepared by dissolve 5 g of crystal violet powder into 100 ml 20% ethanol to make. HaCaT cells in 6-well plates were fixed with 75% ethanol 15 minutes in room temperature. Then cells were incubated with staining solution for 10 minutes. After that cells were washed with PBS for 5 times. Subsequently, pictures were taken under EVOS Cell Imaging System (Invitrogen, Waltham, Mass., USA).
Excessive accumulation of MGO is harmful for skin cells, so the effects of MGO on cell viability at various concentrations on HaCaT cells were evaluated first.

Row | SMILES | wound healing process in the presence of MGO (HaCaT cells [1]) | production of MGO induced ROS in HaCaT cells, compared to non-treated group (HaCaT cells [2]; 12.5, 25, and 50 μM pre-treatment 2 hours) | cell migration ability (transwell assay) (HaCaT cells [3]) | cell viability of HaCaT cells exposed to MGO, compared to non-treated group (HaCaT cells [4]) | DNA damage level caused by MGO (Hoechst staining) (HaCaT cells [5]) | protective effect against methylglyoxal (MGO)-induced DNA damage (9mer ss-DNA; 200 μM 9mer ss-DNA, 200 μM MGO, pH 7.4, 37° C., 7 days) | activity in reducing DNA damage compared with aminoguanidine (AG) positive control (9mer ss-DNA; equivalent concentration (50 μM)) | protective effect on MGO induced DNA damage (comet assay, tail DNA) (HaCaT cells [6]) | production of MGO induced ROS in HaCaT cells, compared to non-treated group (HaCaT cells [2]; 50 μM pre-treatment 2 hours) | cytotoxicity to HaCaT cells (HaCaT cells [7]) | effect of MGO on HaCaT cell viability (HaCaT cells [8]; MGO 100-300 μM) | effect of MGO on HaCaT cell viability (HaCaT cells [8]; MGO at 400 μM or higher) | effect of MGO on HaCaT cell viability (HaCaT cells [8]; MGO higher than 400 μM) | percentage of fracture DNA compared to control group (comet assay) (HaCaT cells [6]; MGO 400 μM alone, 24 h) | production of MGO induced ROS in HaCaT cells, compared to non-treated group (HaCaT cells [2]; 25 and 50 μM pre-treatment 2 hours)
1 | O=C1O[C@H]2[C@@H]3OC(=O)c4cc(O)c(O)c(O)c4-c4c(O)c(O)c5oc(=O)c6c(c(O)c(O)c7oc(=O)c4c5c76)-c4c(cc(O)c(O)c4O)C(=O)OC[C@H]3OC(O)[C@@H]2OC(=O)c2cc(O)c(O)c(O)c2-c2c1cc(O)c(O)c2O (mixture of isomers) [PA, punicalagin] | can promote the wound healing process | significantly reduced the production of MGO induced ROS | promotive effects | significantly increased cell viability | can reduce the DNA damage level | protective effect | considerably more active | protective effect | – | – | – | – | – | – | –
2 | O=c1oc2c(O)c(O)cc3c(=O)oc4c(O)c(O)cc1c4c23 [EA, ellagic acid] | – | – | promotive effects | – | can reduce the DNA damage level | – | – | no protective effects | significantly reduced the production of MGO induced ROS | not cytotoxic | – | – | – | – | –
3 | CC(=O)C=O [MGO, methylglyoxal] | – | – | – | – | – | – | – | – | – | – | did not affect the cell viability; also recorded: non-toxic | significant cytotoxicity | extreme; also recorded: extremely cytotoxic | could increase the percentage of fracture DNA | –
4 | O=c1oc2cc(O)ccc2c2ccc(O)cc12 [UA, urolithin A] | – | – | promotive effects | – | can reduce the DNA damage level | – | – | no protective effects | – | not cytotoxic | – | – | – | – | significantly reduced the production of MGO induced ROS
